Measured values published in publication PMC5578959, “Selective LRRK2 kinase inhibition reduces phosphorylation of endogenous Rab10 and Rab12 in human peripheral mononuclear blood cells” (Scientific Reports, 2017).

Columns and labels:
Experiment in all cases: KiNativ profiling in human PBMCs
Assay type in all cases: binding
[1] = test system: T1, MLKL; conditions: Lys1
T1 construct: purchased ActivX Technologies (KiNativ)
Method in brief: (§1)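 Compound concentrations: 1 µM and 0.1 µM, applied to intact human PBMCs; engagement of kinases determined with the KiNativ approach.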

[2] = test system: T2, OSR1; conditions: Lys2
T2 construct: purchased ActivX Technologies (KiNativ)
Method in brief: as §1

[3] = test system: T3, ZAP70
T3 construct: purchased ActivX Technologies (KiNativ)
Method in brief: as §1

[4] = test system: T4, STLK3; conditions: Lys2
T4 construct: purchased ActivX Technologies (KiNativ)
Method in brief: as §1

[5] = test system: T5, JAK1 domain2
T5 construct: JAK1 domain2; purchased ActivX Technologies (KiNativ)
Method in brief: as §1

[6] = test system: T6, DNAPK; conditions: ATP
T6 construct: purchased ActivX Technologies (KiNativ)
Method in brief: as §1

[7] = test system: T7, TAK1; conditions: Lys2
T7 construct: purchased ActivX Technologies (KiNativ)
Method in brief: as §1

[8] = test system: T8, MARK2; conditions: Lys1
T8 construct: purchased ActivX Technologies (KiNativ)
Method in brief: as §1

[9] = test system: T9, CaMK4
T9 construct: purchased ActivX Technologies (KiNativ)
Method in brief: as §1

[10] = test system: T10, STLK6; conditions: Lys2
T10 construct: purchased ActivX Technologies (KiNativ)
Method in brief: as §1

[11] = test system: T11, MARK3; conditions: Lys1
T11 construct: purchased ActivX Technologies (KiNativ)
Method in brief: as §1

[12] = test system: T12, LKB1; conditions: Lys2
T12 construct: purchased ActivX Technologies (KiNativ)
Method in brief: as §1

[13] = test system: T13, MAP2K4; conditions: 1µM; Lys2
T13 construct: purchased ActivX Technologies (KiNativ)
Method in brief: as §1

[14] = test system: MAP2K1,MAP2K2; conditions: Lys2
Method in brief: as §1

[15] = test system: TAO1,TAO3; conditions: Lys2
Method in brief: as §1

[16] = test system: AKT2,AKT3; conditions: ATP Loop
Method in brief: as §1

[17] = test system: T14, KHS1; conditions: Lys1
T14 construct: purchased ActivX Technologies (KiNativ)
Method in brief: as §1

[18] = test system: T15, PIK3CD; conditions: ATP
T15 construct: purchased ActivX Technologies (KiNativ)
Method in brief: as §1

[19] = test system: T16, MSK2 domain1; conditions: Lys2
T16 construct: MSK2 domain1; purchased ActivX Technologies (KiNativ)
Method in brief: as §1

[20] = test system: T17, DGKA; conditions: ATP
T17 construct: purchased ActivX Technologies (KiNativ)
Method in brief: as §1

[21] = test system: T18, Erk1; conditions: Lys2
T18 construct: purchased ActivX Technologies (KiNativ)
Method in brief: as §1

[22] = test system: T19, MAP2K7; conditions: Lys2
T19 construct: purchased ActivX Technologies (KiNativ)
Method in brief: as §1

[23] = test system: T20, JAK1 domain1; conditions: Other
T20 construct: JAK1 domain1; purchased ActivX Technologies (KiNativ)
Method in brief: as §1

[24] = test system: T21, ACK; conditions: Lys1
T21 construct: purchased ActivX Technologies (KiNativ)
Method in brief: as §1

[25] = test system: KSR1,KSR2; conditions: Activation Loop
Method in brief: as §1

[26] = test system: T22, SNRK; conditions: Lys2
T22 construct: purchased ActivX Technologies (KiNativ)
Method in brief: as §1

[27] = test system: T23, ARAF; conditions: Lys2
T23 construct: purchased ActivX Technologies (KiNativ)
Method in brief: as §1

[28] = test system: T24, PIP4K2C; conditions: ATP
T24 construct: purchased ActivX Technologies (KiNativ)
Method in brief: as §1

[29] = test system: T25, SGK3; conditions: Lys2
T25 construct: purchased ActivX Technologies (KiNativ)
Method in brief: as §1

[30] = test system: T26, ULK3
T26 construct: purchased ActivX Technologies (KiNativ)
Method in brief: as §1

[31] = test system: T27, TLK2; conditions: Lys2
T27 construct: purchased ActivX Technologies (KiNativ)
Method in brief: as §1

[32] = test system: T28, SYK
T28 construct: purchased ActivX Technologies (KiNativ)
Method in brief: as §1

[33] = test system: JNK1,JNK2,JNK3; conditions: Lys2
Method in brief: as §1

[34] = test system: T29, NEK7; conditions: Lys1
T29 construct: purchased ActivX Technologies (KiNativ)
Method in brief: as §1

[35] = test system: T30, CaMK1a; conditions: Lys1
T30 construct: purchased ActivX Technologies (KiNativ)
Method in brief: as §1

SMILES: Cc1cccc(-c2cc(Nc3ccn(C)n3)nc3[nH]cc(C#N)c23)c1 [Lu AF58786]
- Inhibition ([1]; 0.1µM): -7.9%
- Inhibition ([1]; 1µM): -7.5%
- Inhibition ([2]; 0.1µM): 19.8%
- Inhibition ([2]; 1µM): -4.1%
- Inhibition ([3]; 0.1µM, Activation Loop): 14.7%
- Inhibition ([3]; 0.1µM, Lys1): 4.6%
- Inhibition ([3]; 1µM, Activation Loop): 7.0%
- Inhibition ([3]; 1µM, Lys1): 7.9%
- Inhibition ([4]; 0.1µM): 22.4%
- Inhibition ([4]; 1µM): -36.2%
- Inhibition ([5]; 0.1µM, Activation Loop): 0.9%
- Inhibition ([5]; 0.1µM, Lys1): -25.0%
- Inhibition ([5]; 1µM, Activation Loop): -39.0%
- Inhibition ([5]; 1µM, Lys1): -35.1%
- Inhibition ([6]; 0.1 µM, EHPFLVKGGEDLR): 19.6%
- Inhibition ([6]; 0.1 µM, KGGSWIQEINVAEK): -21.8%
- Inhibition ([6]; 1 µM, KGGSWIQEINVAEK): 2.3%
- Inhibition ([7]; 0.1µM): 21.8%
- Inhibition ([7]; 1µM): -11.4%
- Inhibition ([8]; 0.1µM): -6.2%
- Inhibition ([8]; 1µM): -21.2%
- Inhibition ([9]; 0.1µM, Lys1): 11.0%
- Inhibition ([9]; 0.1µM, Lys2): 14.0%
- Inhibition ([9]; 1µM, Lys1): 23.7%
- Inhibition ([9]; 1µM, Lys2): 12.9%
- Inhibition ([10]; 0.1µM): -9.8%
- Inhibition ([10]; 1µM): -1.6%
- Inhibition ([11]; 0.1µM): 2.1%
- Inhibition ([11]; 1µM): 3.2%
- Inhibition ([12]; 0.1µM): 6.1%
- Inhibition ([12]; 1µM): 3.9%
- Inhibition [13]: -0.124%
- Inhibition ([14]; 0.1 µM, DVKPSNILVNSR): 4.0%
- Inhibition ([14]; 1 µM, DVKPSNILVNSR): 1.8%
- Inhibition ([14]; 1 µM, IMHRDVKPSNILVNSR): 14.1%
- Inhibition ([15]; 0.1µM): 27.6%
- Inhibition ([15]; 1µM): 15.9%
- Inhibition ([16]; 0.1µM): -0.7%
- Inhibition ([16]; 1µM): -7.3%
- Inhibition ([17]; 0.1µM): 3.0%
- Inhibition ([17]; 1µM): -2.5%
- Inhibition ([18]; 0.1 µM, TKVNWLAHNVSKDNRQ): -4.8%
- Inhibition ([18]; 0.1 µM, VNWLAHNVSKDNRQ): 8.9%
- Inhibition ([18]; 1 µM, TKVNWLAHNVSKDNRQ): 14.4%
- Inhibition ([18]; 1 µM, VNWLAHNVSKDNRQ): 18.8%
- Inhibition ([19]; 0.1µM): 28.3%
- Inhibition ([19]; 1µM): 19.0%
- Inhibition ([20]; 0.1µM): 1.1%
- Inhibition ([20]; 1µM): -1.9%
- Inhibition ([21]; 0.1µM): 2.3%
- Inhibition ([21]; 1µM): 1.5%
- Inhibition ([22]; 0.1µM): 18.1%
- Inhibition ([22]; 1µM): -7.3%
- Inhibition ([23]; 0.1 µM): 19.3%
- Inhibition ([23]; 1 µM): 55.0%
- Inhibition ([24]; 0.1µM): -14.9%
- Inhibition ([24]; 1µM): -10.3%
- Inhibition ([25]; 0.1µM): 12.4%
- Inhibition ([25]; 1µM): -3.6%
- Inhibition ([26]; 0.1µM): 22.5%
- Inhibition ([26]; 1µM): 15.1%
- Inhibition ([27]; 0.1µM): -4.9%
- Inhibition ([27]; 1µM): -4.5%
- Inhibition ([28]; 0.1µM): 19.6%
- Inhibition ([28]; 1µM): 31.1%
- Inhibition ([29]; 0.1µM): -8.9%
- Inhibition ([29]; 1µM): 13.9%
- Inhibition ([30]; 0.1µM, Lys1): 3.2%
- Inhibition ([30]; 0.1µM, Lys2): -16.6%
- Inhibition ([30]; 1µM, Lys1): 2.2%
- Inhibition ([30]; 1µM, Lys2): -15.6%
- Inhibition ([31]; 0.1µM): 13.3%
- Inhibition ([31]; 1µM): -1.2%
- Inhibition ([32]; 0.1µM, Activation Loop): 8.3%
- Inhibition ([32]; 0.1µM, Lys1): 12.8%
- Inhibition ([32]; 1µM, Lys1): -5.9%
- Inhibition ([33]; 0.1µM): 30.2%
- Inhibition ([33]; 1µM): 71.2%
- Inhibition ([34]; 0.1µM): -17.5%
- Inhibition ([34]; 1µM): 16.7%
- Inhibition ([35]; 0.1µM): 11.0%
- Inhibition ([35]; 1µM): -3.0%
